Tests used:
velvetleaf = assay: Test B pre-/postemergence herbicide test; format: in vivo, Abutilon theophrasti; details: for Velvetleaf plant response rating: postemergence
Outline: (§1)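 Plants compared with untreated controls 13–15 days post-treatment and given a visual 0–100 injury score. Applications: preemergence to seeds; postemergence at 1- to 4-leaf (2–18 cm); paddy species flooded, 2-leaf stage. Vehicle non-phytotoxic, surfactant included.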

wild oat = assay: Test B postemergence herbicide test; format: in vivo, Avena fatua; details: postemergence
Outline: (§2)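 Formulated test chemicals went onto postemergence plants measuring 2 to 18 cm, at one to four leaves. For the paddy assay, species had reached two leaves. Scoring took place 13–15 days later by eye, relative to untreated plants, using 0 for no effect up to 100 for full control.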

giant foxtail = assay: Test B pre-/postemergence herbicide test; format: in vivo, Setaria faberi; details: for Foxtail, Giant plant response rating: postemergence
Outline: as §1

barnyardgrass [1] = assay: Test B flooded paddy test; format: in vivo, Echinochloa crus-galli; details: 1000 g ai/ha, scale 0 to 100 (0 no effect, 100 complete control)
Outline: (§3)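 Treated at 2-leaf (paddy) or 1–4-leaf, 2–18 cm (postemergence); greenhouse 13–15 d; visual score vs control, 0 none to 100 complete control; dash = not tested.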

wheat = assay: Test B postemergence herbicide test; format: in vivo, Triticum aestivum; design: key to Wheat plant response rating: 0 = no effect, 100 = complete control; details: postemergence
Outline: as §2

morningglory = assay: Test B pre-/postemergence herbicide test; format: in vivo, Ipomoea coccinea; details: for Morningglory plant response rating: postemergence
Outline: (§4)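 Herbicidal effect was judged by eye on a 0–100 scale after plants stood 13 to 15 days in the greenhouse following pre- or postemergence treatment with surfactant-containing formulations.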

ducksalad [2] = assay: Test C flooded paddy test; format: in vivo, Heteranthera limosa
cocklebur = assay: Test B pre-/postemergence herbicide test; format: in vivo, Xanthium strumarium; details: for Cocklebur plant response rating: postemergence, scale 0 (no effect) to 100 (complete control)
Outline: as §4

rice [3] = assay: Test B pre-/postemergence herbicide test; format: in vivo, Oryza sativa; details: 0 = no effect, 100 = complete control, preemergence
Outline: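 Greenhouse pot assay with simultaneous preemergence (treated seed) and postemergence (2–18 cm seedlings) applications of surfactant-containing, non-phytotoxic solvent formulations. Response scored visually 13–15 days later on a 0–100 scale, 100 meaning complete control.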

rice [4] = assay: Test C flooded paddy test; format: in vivo, Oryza sativa
Outline: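 Plants were grown to the 1- to 4-leaf stage (2–18 cm) and then treated postemergence, or grown to the 2-leaf stage for the flooded paddy test. They were held in a greenhouse for 12 to 14 days and then scored by eye against controls, where 0 is no effect and 100 is complete control.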

[5] = test system: small flower umbrella sedge; assay: Test B flooded paddy test; format: in vivo, Cyperus difformis; details: 1000 g ai/ha, scale 0 to 100 (0 no effect, 100 complete control)
Outline: as §3

blackgrass = assay: Test B postemergence herbicide test; format: in vivo, Alopecurus myosuroides; details: postemergence, visual rating, scale 0 (no effect) to 100 (complete control)
Outline: as §3

ducksalad [6] = assay: Test B flooded paddy test; format: in vivo, Heteranthera limosa; details: 1000 g ai/ha, scale 0 to 100 (0 no effect, 100 complete control)
Outline: as §3

[7] = test system: smallflower umbrella sedge; assay: Test C flooded paddy test; format: in vivo, Cyperus difformis
large crabgrass = assay: Test B pre-/postemergence herbicide test; format: in vivo, Digitaria sanguinalis; details: for Crabgrass, Large plant response rating: postemergence
Outline: as §1

barnyardgrass [8] = assay: Test B pre-/postemergence herbicide test; format: in vivo, Echinochloa crus-galli; details: for Barnyardgrass plant response rating: postemergence, scale 0 (no effect) to 100 (complete control)
Outline: as §4

Surinam grass = assay: Test B pre-/postemergence herbicide test; format: in vivo, Urochloa decumbens; details: for Surinam Grass plant response rating: postemergence
Outline: as §1

pigweed = assay: Test B pre-/postemergence herbicide test; format: in vivo, Amaranthus retroflexus; details: for Pigweed plant response rating: postemergence
Outline: as §1

barnyardgrass [9] = assay: Test C flooded paddy test; format: in vivo, Echinochloa crus-galli
Outline: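 Greenhouse test with a 12–14 day hold after application and visual comparison with controls. Emerged plants were 1- to 4-leaf stage (2–18 cm) when sprayed postemergence, and the paddy barnyardgrass was at 2 leaves under flooded conditions. 100 = complete control.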

rice [10] = assay: Test B flooded paddy test; format: in vivo, Oryza sativa; details: 1000 g ai/ha, scale 0 to 100 (0 no effect, 100 complete control)
Outline: as §2

corn = assay: Test B pre-/postemergence herbicide test; format: in vivo, Zea mays; details: for Corn plant response rating: postemergence
Outline: as §1

lambsquarters = assay: Test B pre-/postemergence herbicide test; format: in vivo, Chenopodium album; details: for Lambsquarters plant response rating: postemergence
Outline: as §1

[11] = 125 g ai/ha, 0 = no effect, 100 = complete control, preemergence
[12] = 500 g ai/ha, visual rating, 0 = no effect, 100 = complete control, preemergence
[13] = 125 g ai/ha, visual rating, scale 0 (no effect) to 100 (complete control)
[14] = 500 g ai/ha, scale 0 to 100, 0 is no effect, 100 is complete control
[15] = 125 g ai/ha, scale 0 to 100 (0 no effect, 100 complete control)
[16] = 250 g ai/ha, scale of 0 to 100, 0 is no effect, 100 is complete control
[17] = 500 g ai/ha, visual rating after 12 to 14 days, scale 0 to 100 (0 no effect, 100 complete control)

`CCNC(=O)c1cc(NC(=O)c2cc(C(C)(C)C)nn2CC)c(F)cc1F` [Compound 252] was tested, and the “Velvetleaf plant response rating (0 to 100 scale)” value (velvetleaf; [11]) was 0, the “Plant response rating, Velvetleaf” value (velvetleaf; [12]) was 60 and the “Velvetleaf plant response rating” value (velvetleaf; [13]) was 30. The “Velvetleaf plant response rating” value (velvetleaf; [14]) was 30, the “Oat, Wild plant response rating” value (wild oat; [13]) was 20 and the “Oat, Wild plant response rating” value (wild oat; [14]) was 20. For the same molecule, the “Foxtail, Giant plant response rating (0 to 100 scale)” value (giant foxtail; [11]) was 10, the “Plant response rating, Foxtail, Giant” value (giant foxtail; [12]) was 90 and the “Foxtail, Giant plant response rating” value (giant foxtail; [13]) was 20. For the same molecule, the “Foxtail, Giant plant response rating” value (giant foxtail; [14]) was 30, the “Barnyardgrass plant response rating” value (barnyardgrass [1]) was 70 and the “Wheat plant response rating” value (wheat; [13]) was 20. For the same molecule, the “Wheat plant response rating” value (wheat; [14]) was 20, the “Morningglory plant response rating (0 to 100 scale)” value (morningglory; [11]) was 0 and the “Plant response rating, Morningglory” value (morningglory; [12]) was 0. For the same molecule, the “Morningglory plant response rating” value (morningglory; [13]) was 20, the “Morningglory plant response rating” value (morningglory; [14]) was 20 and the “Ducksalad plant response rating” value (ducksalad [2]; 62 g ai/ha, scale 0 to 100) was 0. For the same molecule, the “Ducksalad plant response rating” value (ducksalad [2]; [15]) was 0, the “Ducksalad plant response rating” value (ducksalad [2]; [16]) was 15 and the “Plant response rating, Ducksalad” value (ducksalad [2]; [17]) was 80. For the same molecule, the “Cocklebur plant response rating (0 to 100 scale)” value (cocklebur; [11]) was 0, the “Plant response rating, Cocklebur” value (cocklebur; [12]) was 0 and the “Cocklebur plant response rating” value (cocklebur; 125 g ai/ha, visual rating) was 20. The “Cocklebur plant response rating” value (cocklebur; 500 g ai/ha, visual rating) was 40, the “Rice plant response rating (0 to 100 scale)” value (rice [3]; 125 g ai/ha) was 30 and the “Plant response rating, Rice” value (rice [3]; 500 g ai/ha, visual rating) was 50. For the same molecule, the “Rice plant response rating” value (rice [4]; 62 g ai/ha, scale 0 to 100) was 0, the “Rice plant response rating” value (rice [4]; [15]) was 45 and the “Rice plant response rating” value (rice [4]; [16]) was 55. The “Plant response rating, Rice” value (rice [4]; [17]) was 60, the “Sedge, Umbrella plant response rating” value [5] was 80 and the “Blackgrass plant response rating” value (blackgrass; 125 g ai/ha) was 10. The “Blackgrass plant response rating” value (blackgrass; 500 g ai/ha) was 20, the “Ducksalad plant response rating” value (ducksalad [6]) was 90 and the “Sedge, Umbrella plant response rating” value ([7]; 62 g ai/ha, scale 0 to 100) was 0. For the same molecule, the “Sedge, Umbrella plant response rating” value [7, 15] was 40, the “Sedge, Umbrella plant response rating” value [7, 16] was 50 and the “Plant response rating, Sedge, Umbrella” value [7, 17] was 75. The “Crabgrass, Large plant response rating (0 to 100 scale)” value (large crabgrass; [11]) was 80, the “Plant response rating, Crabgrass, Large” value (large crabgrass; [12]) was 100 and the “Crabgrass, Large plant response rating” value (large crabgrass; [13]) was 0. For the same molecule, the “Crabgrass, Large plant response rating” value (large crabgrass; [14]) was 10, the “Barnyardgrass plant response rating (0 to 100 scale)” value (barnyardgrass [8]; [11]) was 0 and the “Plant response rating, Barnyardgrass” value (barnyardgrass [8]; [12]) was 70. The “Barnyardgrass plant response rating” value (barnyardgrass [8]; 125 g ai/ha, visual rating) was 0, the “Barnyardgrass plant response rating” value (barnyardgrass [8]; 500 g ai/ha, visual rating) was 10 and the “Surinam Grass plant response rating (0 to 100 scale)” value (Surinam grass; [11]) was 10. For the same molecule, the “Plant response rating, Surinam Grass” value (Surinam grass; [12]) was 70, the “Surinam Grass plant response rating” value (Surinam grass; [13]) was 10 and the “Surinam Grass plant response rating” value (Surinam grass; [14]) was 20. For the same molecule, the “Plant response rating, Pigweed” value (pigweed; [12]) was 100, the “Pigweed plant response rating” value (pigweed; [13]) was 20 and the “Pigweed plant response rating” value (pigweed; [14]) was 30. For the same molecule, the “Barnyardgrass plant response rating” value (barnyardgrass [9]; 62 g ai/ha, scale 0 to 100 (0 no effect, 100 complete control)) was 0, the “Barnyardgrass plant response rating” value (barnyardgrass [9]; [15]) was 0 and the “Barnyardgrass plant response rating” value (barnyardgrass [9]; [16]) was 15. For the same molecule, the “Plant response rating, Barnyardgrass” value (barnyardgrass [9]; [17]) was 45, the “Rice plant response rating” value (rice [10]) was 80 and the “Corn plant response rating (0 to 100 scale)” value (corn; [11]) was 0. The “Plant response rating, Corn” value (corn; [12]) was 60, the “Corn plant response rating” value (corn; [13]) was 10 and the “Corn plant response rating” value (corn; [14]) was 10. The “Plant response rating, Lambsquarters” value (lambsquarters; [12]) was 100, the “Lambsquarters plant response rating” value (lambsquarters; [13]) was 30 and the “Lambsquarters plant response rating” value (lambsquarters; [14]) was 30.

From US20060069132A1, “Azolecarboxamide herbicides” (priority 2004, published 2006)
